The term Kd denotes the free concentration of one partner at which half of the binding sites on the other are occupied at equilibrium, for simple one-to-one binding. In general, EC50 refers to the concentration that produces a half-maximal response.

The values below come from US7709441B2, “Control of function of intracellular Ca ion” (Japan Science and Technology Agency, priority 2003, dated 2010).

Like-named read-outs stand apart in the source and are kept apart here.

For series [1], the target named is T1, IP3R1 (Mus musculus, UniProt P11881). The experiment in a line: [3H]IP3 binding assay with purified IP3R1 in the presence or absence of CARP (Scatchard plot). The following applies: for Kd: mean of three separate experiments, read-out: dissociation constant (Kd±S.D.) of IP3 binding to IP3R1. The procedure: The inventors conducted a binding assay using purified IP3R1, to evaluate effect of CARP on IP3-binding affinity to IP3R1. Purified IP3R1 was incubated with various concentration of [^3H] IP3 in the presence or absence of purified recombinant CARP, and analyzed by a Scatchard plot.
IP3 binding to IP3R1 by IP3 in the presence (▪ in FIG. 6) and in the absence (● in FIG. 6) of CARP. In FIG. 6, the horizontal axis represents an amount of binding IP3 (pmol/mg), and the vertical axis represents an amount of binding IP3 divided by an amount of non-binding IP3 (pmol/mg/nM).
[^3H]IP3 binding to IP3R1 was assayed by polyethylene glycol precipitation in the presence or absence of CARP in accordance with the method as reported previously (Maeda, N., Niinobe, M., et al, (1990), EMBO J.,9,61-67). 0.5 μg of purified IP3R1 was incubated with or without 10 μg of purified His-CARP in 50 μL of a solution containing 50 mM Tris-HCl, pH 8.0, 1 mM EDTA, 1 mM 2-mercaptoethanol, 9.6 nM [^3H] IP3 and different concentration of IP3, for 10 min at 4° C. Nonspecific binding was measured in the presence of 10 μM IP3.
Target sequence in this assay (P11881 whole entry): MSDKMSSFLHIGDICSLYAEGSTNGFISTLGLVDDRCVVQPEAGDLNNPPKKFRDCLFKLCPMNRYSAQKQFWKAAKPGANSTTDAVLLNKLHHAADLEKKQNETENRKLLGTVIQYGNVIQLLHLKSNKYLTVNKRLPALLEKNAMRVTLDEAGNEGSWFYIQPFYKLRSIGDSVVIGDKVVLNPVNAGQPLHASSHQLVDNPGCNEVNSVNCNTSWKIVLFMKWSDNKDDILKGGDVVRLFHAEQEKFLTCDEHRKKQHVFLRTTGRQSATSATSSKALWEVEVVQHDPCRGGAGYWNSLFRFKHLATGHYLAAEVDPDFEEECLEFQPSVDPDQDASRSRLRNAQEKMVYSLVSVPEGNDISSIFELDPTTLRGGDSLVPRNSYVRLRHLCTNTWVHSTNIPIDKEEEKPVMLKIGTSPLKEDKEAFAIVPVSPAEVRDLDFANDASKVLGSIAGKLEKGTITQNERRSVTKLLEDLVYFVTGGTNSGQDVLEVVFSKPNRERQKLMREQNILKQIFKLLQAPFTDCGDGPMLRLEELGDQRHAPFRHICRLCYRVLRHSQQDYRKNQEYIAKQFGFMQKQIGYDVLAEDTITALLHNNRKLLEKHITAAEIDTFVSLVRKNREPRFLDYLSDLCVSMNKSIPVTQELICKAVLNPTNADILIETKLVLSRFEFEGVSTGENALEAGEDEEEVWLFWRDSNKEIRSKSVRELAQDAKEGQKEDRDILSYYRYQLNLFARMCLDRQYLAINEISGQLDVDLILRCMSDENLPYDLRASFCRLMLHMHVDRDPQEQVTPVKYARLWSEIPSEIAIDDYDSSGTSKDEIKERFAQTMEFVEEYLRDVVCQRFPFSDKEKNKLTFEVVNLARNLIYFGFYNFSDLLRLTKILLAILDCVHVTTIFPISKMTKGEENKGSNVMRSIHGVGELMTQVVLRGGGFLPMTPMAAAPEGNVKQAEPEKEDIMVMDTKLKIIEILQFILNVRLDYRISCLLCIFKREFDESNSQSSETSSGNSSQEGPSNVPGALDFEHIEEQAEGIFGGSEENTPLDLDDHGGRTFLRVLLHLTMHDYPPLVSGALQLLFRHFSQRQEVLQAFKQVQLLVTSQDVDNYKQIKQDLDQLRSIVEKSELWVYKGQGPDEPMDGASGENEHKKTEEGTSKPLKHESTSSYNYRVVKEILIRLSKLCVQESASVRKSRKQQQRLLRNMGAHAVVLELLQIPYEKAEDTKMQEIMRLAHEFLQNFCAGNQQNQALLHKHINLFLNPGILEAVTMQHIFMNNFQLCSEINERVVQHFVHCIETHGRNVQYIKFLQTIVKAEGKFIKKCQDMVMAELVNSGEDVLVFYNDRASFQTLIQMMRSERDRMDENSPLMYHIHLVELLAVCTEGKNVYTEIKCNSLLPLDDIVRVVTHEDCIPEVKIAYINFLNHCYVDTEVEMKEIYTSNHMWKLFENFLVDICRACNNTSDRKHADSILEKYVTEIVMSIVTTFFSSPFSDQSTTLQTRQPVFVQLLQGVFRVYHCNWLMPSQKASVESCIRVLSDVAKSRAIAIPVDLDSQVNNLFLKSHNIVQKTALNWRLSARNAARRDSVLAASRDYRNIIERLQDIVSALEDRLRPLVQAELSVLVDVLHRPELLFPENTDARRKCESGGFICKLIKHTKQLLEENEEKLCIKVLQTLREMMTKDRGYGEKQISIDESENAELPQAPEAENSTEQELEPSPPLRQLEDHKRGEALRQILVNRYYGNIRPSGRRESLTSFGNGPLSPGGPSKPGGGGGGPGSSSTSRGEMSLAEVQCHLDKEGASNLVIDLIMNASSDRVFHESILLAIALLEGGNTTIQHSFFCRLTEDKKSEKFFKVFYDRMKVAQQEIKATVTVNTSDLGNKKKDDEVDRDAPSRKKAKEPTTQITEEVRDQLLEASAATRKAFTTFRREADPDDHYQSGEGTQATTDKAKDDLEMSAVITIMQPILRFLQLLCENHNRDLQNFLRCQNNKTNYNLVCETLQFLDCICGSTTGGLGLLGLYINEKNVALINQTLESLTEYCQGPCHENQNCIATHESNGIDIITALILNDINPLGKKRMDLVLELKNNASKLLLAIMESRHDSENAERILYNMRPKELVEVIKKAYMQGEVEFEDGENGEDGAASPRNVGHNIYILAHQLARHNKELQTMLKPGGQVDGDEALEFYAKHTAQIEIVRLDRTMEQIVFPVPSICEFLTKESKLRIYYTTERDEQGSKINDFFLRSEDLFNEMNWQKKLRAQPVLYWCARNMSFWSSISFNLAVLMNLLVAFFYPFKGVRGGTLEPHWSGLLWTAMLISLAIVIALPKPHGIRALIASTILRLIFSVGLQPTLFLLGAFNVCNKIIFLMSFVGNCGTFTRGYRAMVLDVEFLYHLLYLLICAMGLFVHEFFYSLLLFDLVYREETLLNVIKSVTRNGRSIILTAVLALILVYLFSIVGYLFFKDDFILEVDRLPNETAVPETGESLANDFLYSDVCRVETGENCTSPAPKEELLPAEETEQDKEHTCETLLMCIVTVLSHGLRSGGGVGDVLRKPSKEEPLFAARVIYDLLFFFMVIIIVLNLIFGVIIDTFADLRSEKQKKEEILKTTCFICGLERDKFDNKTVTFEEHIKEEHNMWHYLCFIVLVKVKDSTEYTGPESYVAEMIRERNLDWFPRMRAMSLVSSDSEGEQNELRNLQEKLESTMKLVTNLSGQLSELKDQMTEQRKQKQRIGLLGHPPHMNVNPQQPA

Series [2] has as its system IP3R1. The following applies: other tissues or isolated IP3R1; read-out: EC50 of IP3 for IP3-induced Ca2+ release; cited from earlier work.
The subject of series [3] is Purkinje cells. The following applies: intact Purkinje cells; read-out: EC50 of IP3 for IP3-induced Ca2+ release; cited from earlier work.
The target in series [4] is T2, GST-EL (amino acids 1-2217 of mIP3R1) (Mus musculus, UniProt P11881).
T2 construct: (amino acids 1-2217 of mIP3R1) and has GST in its N terminus; made in house; host or cells: Sf9 cells (recombinant baculovirus)
T2 sequence (P11881 1-2217, one chain of several): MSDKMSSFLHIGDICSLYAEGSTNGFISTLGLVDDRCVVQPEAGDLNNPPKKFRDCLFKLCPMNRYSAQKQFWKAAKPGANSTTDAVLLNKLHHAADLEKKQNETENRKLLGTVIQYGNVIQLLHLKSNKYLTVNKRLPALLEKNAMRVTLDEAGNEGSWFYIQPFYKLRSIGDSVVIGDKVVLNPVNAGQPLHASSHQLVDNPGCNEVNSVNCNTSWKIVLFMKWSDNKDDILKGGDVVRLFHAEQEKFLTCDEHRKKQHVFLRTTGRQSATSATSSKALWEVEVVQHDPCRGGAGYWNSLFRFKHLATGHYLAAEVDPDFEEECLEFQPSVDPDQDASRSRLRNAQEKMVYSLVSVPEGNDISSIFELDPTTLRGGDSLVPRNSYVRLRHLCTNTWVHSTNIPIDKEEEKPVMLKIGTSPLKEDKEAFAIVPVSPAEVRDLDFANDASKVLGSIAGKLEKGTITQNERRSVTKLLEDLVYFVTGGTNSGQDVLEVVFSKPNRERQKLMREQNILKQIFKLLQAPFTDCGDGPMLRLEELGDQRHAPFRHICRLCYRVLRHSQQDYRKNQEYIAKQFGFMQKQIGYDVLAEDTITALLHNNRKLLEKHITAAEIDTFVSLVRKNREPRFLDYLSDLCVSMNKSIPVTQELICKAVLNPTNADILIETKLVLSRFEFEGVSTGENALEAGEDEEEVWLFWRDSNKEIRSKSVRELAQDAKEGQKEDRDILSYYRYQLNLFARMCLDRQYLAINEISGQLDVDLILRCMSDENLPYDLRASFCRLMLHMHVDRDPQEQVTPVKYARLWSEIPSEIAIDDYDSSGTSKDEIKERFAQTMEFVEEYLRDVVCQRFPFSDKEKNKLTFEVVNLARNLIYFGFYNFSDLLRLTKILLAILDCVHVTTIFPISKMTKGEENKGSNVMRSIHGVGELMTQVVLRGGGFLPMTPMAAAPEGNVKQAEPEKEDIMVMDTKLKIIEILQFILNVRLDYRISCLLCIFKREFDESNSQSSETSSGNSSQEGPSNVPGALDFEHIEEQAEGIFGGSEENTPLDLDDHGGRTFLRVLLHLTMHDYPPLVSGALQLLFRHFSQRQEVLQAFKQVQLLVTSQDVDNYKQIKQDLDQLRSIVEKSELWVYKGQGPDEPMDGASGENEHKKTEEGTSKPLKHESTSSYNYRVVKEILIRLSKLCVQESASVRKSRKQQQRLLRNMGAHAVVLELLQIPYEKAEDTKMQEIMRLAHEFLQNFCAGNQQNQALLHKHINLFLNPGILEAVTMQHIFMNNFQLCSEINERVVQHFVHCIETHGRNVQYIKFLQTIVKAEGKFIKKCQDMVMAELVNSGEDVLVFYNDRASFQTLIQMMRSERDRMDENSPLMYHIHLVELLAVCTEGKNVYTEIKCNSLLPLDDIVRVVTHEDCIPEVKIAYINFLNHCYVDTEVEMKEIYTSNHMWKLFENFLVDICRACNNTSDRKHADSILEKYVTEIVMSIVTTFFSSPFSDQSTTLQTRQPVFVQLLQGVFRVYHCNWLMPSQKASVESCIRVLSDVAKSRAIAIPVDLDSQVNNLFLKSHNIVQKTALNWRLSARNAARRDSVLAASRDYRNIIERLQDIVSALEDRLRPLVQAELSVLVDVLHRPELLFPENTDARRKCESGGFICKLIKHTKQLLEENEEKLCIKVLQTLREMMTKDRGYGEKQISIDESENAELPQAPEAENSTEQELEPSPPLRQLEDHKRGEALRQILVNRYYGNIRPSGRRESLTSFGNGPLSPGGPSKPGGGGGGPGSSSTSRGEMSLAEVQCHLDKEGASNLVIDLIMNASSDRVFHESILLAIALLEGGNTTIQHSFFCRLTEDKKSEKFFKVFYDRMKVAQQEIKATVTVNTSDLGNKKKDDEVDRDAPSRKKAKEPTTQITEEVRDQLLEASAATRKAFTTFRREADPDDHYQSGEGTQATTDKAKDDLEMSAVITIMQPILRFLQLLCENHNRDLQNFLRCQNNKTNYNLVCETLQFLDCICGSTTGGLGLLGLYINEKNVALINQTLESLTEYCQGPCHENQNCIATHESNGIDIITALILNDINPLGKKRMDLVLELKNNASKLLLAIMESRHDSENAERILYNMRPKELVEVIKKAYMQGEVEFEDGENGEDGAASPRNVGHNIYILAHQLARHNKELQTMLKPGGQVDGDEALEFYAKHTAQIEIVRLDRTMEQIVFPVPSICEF
The series can be described thus: Pull-down assay with GST-EL (soluble IP3R1), immunoblot with anti-CARP antibody. It counts as binding. Particulars: mouse cerebellar cytosolic fraction; GST as control. The text has this:
(§1) Next, the inventors of the present application examined the interaction between CARP and IP3R1 by means of a pull-down method in order to obtain further evidence for the interaction by biochemical methods. The inventors first developed expression system in Sf9 cells, and made IP3R1 soluble by removing the channel domain. The soluble IP3R1, designated GST-EL, covers both the ligand binding domain and modulatory domain (amino acids 1-2217 of mIP3R1) and has GST in its N terminus. Mouse cerebellar cytosolic fraction was incubated with GST-EL or GST, and binding of CARP to the recombinant proteins was analyzed by immunoblotting with anti-CARP antibody. The results are shown in photographs of FIG. 4 which are substituted for drawings.
Adult mouse cerebella were homogenized in 10 mM HEPES (pH 7.4), 320 mM Sucrose, 2 mM EDTA, 1 mM 2-mercaptoethanol, and protease inhibitors and the homogenate was centrifuged at 1,000×g for 10 min. The supernatant was centrifuged at 100,000×g for 60 min to obtain the cytosolic fraction (the supernatant) and the crude microsome (the pellet). The cytosolic fraction was added with 100 mM NaCl, and incubated with 20 μg of GST-EL or GST for 2 hours at 4° C. […] The eluted proteins were analyzed by Western blotting with anti-CARP antibody. […]
In general terms: In western blotting, separated proteins are transferred to a membrane and probed.

For series [5] the following is noted: reported; cited from earlier work.
The target in series [6] is T1, IP3R1. The series can be described thus: Pull-down assay with GST-CARP on detergent extract of mouse cerebellar microsome, immunoblot with anti-IP3R1 antibody. Set-up: The crude microsome was solubilized with 1% Triton X-100; from tissue; host or cells: adult mouse cerebellum, crude microsome solubilized with Triton X-100 (GST-CARP made in Escherichia coli). Particulars: GST as control. It counts as binding.
Source text: as §1
The crude microsome was solubilized with 1% Triton X-100, and dissolved in 50 mM HEPES (pH7.4), 2 mM EDTA, 1 mM 2-mercaptoethanol, and protease inhibitors for 30 min at 4° C., and centrifuged at 20,000×g for 30 min. The supernatants were processed for pull-down assay with 10 μg of GST-CARP or GST as described above, and bound proteins were subjected to immunoblot analysis with anti-IP3R1 antibody KM1112.

As for `O=P(O)(O)OC1C(O)C(O)C(OP(=O)(O)O)C(OP(=O)(O)O)C1O` (stereo not shown) [IP3, inositol-1,4,5-triphosphate], the results for the “Bmax value of IP3 binding to IP3R1” value in series [1] (in the absence of CARP) and in series [1] (in the presence of CARP) were 1720 ± 234 pmol/mg and 1630 ± 108 pmol/mg, respectively. Also, the Kd turned out to be 18.2 ± 4.58 nM in series [1] (in the absence of CARP) and 33.5 ± 2.07 nM in series [1] (in the presence of CARP). In addition, the figures for the EC50 in series [2] and in series [3] were 100 to 1000 nM and at least 10000 nM, respectively.

B1: CARP: mouse carbonic anhydrase-related protein, 291 amino acids, SEQ ID NO:2 (protein, listed as Mus musculus)
chain: MADLSFIEDAVAFPEKEEDEEEEEEEGVEWGYEEGVEWGLVFPDANGEYQSPINLNSREARYDPSLLDVRLSPNYVVCRDCEVTNDGHTIQVILKSKSVLSGGPLPGGQEFELYEVRFHWGRENQRGSEHTVNFKAFPMELHLIHWNSTLFGSIDEAVGKPHGIAIIALFVQIGKEHVGLKAVTEILQDIQYKGKSKTIPCFNPNTLLPDPLLRDYWVYEGSLTIPPCSEGVTWILFRYPLTISQMQIEEFRRLRTHVKGVELVEGCDGILGDNFRPTQPLSDRVIRAAFQ
In the case of B1, the “effect of CARP on binding of IP3 to IP3R1” value in series [1] (10 μg purified His-CARP, 0.5 μg purified IP3R1) is listed as “inhibits binding of IP3 to IP3R1 not by antagonistic action but by reducing the affinity”. The “binding of CARP to GST-EL in pull-down” value in series [4] is “specifically binds to GST-EL, but not to GST alone”. Further, in series [5], the carbonic anhydrase activity entry is recorded as “no carbonic anhydrase activity”.

B2: GST-CARP: GST-fusion recombinant full-length CARP expressed in Escherichia coli (protein)
chain: MADLSFIEDAVAFPEKEEDEEEEEEEGVEWGYEEGVEWGLVFPDANGEYQSPINLNSREARYDPSLLDVRLSPNYVVCRDCEVTNDGHTIQVILKSKSVLSGGPLPGGQEFELYEVRFHWGRENQRGSEHTVNFKAFPMELHLIHWNSTLFGSIDEAVGKPHGIAIIALFVQIGKEHVGLKAVTEILQDIQYKGKSKTIPCFNPNTLLPDPLLRDYWVYEGSLTIPPCSEGVTWILFRYPLTISQMQIEEFRRLRTHVKGVELVEGCDGILGDNFRPTQPLSDRVIRAAFQ
modifications: left off: a dimerising Fc or GST
notes: GST-fusion recombinant full-length CARP expressed in Escherichia coli
Turning to B2, the “binding of IP3R1 to GST-CARP in pull-down” value in series [6] is given as “IP3R1 interacted with GST-CARP but not with GST”.
